According to paper PMC7445743 (Journal of Medicinal Chemistry, 2020):
Structures can show the parent of a compound that is named as a salt.

What was measured:
CAMK1G = CAMK1G (Homo sapiens, UniProt Q96NX5); conditions: supplement CSV
CAMK2A = CAMK2A (Homo sapiens, UniProt Q9UQM7); conditions: supplement CSV
SYK = SYK (Homo sapiens, UniProt P43405); conditions: supplement CSV
DAPK3 = DAPK3 (Homo sapiens, UniProt O43293); conditions: supplement CSV
GSK3β = GSK3β (Homo sapiens, UniProt P49841); conditions: supplement CSV
Sequence of GSK3β (P49841 whole entry, species assumed): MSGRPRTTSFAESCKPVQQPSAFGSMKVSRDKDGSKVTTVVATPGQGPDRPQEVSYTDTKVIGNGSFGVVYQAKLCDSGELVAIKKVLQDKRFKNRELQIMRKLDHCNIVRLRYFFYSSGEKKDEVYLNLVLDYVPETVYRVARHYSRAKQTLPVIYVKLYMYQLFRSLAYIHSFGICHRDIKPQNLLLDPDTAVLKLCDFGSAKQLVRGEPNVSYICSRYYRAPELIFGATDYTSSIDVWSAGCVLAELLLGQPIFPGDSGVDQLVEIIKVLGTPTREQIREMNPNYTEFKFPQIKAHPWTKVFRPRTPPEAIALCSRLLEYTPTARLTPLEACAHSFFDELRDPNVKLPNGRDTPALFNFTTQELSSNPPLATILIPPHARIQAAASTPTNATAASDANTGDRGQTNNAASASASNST

CaMK4 = target: T1, CaMK4 (Homo sapiens, UniProt Q16566); conditions: supplement CSV
T1 sequence (Q16566 1-473): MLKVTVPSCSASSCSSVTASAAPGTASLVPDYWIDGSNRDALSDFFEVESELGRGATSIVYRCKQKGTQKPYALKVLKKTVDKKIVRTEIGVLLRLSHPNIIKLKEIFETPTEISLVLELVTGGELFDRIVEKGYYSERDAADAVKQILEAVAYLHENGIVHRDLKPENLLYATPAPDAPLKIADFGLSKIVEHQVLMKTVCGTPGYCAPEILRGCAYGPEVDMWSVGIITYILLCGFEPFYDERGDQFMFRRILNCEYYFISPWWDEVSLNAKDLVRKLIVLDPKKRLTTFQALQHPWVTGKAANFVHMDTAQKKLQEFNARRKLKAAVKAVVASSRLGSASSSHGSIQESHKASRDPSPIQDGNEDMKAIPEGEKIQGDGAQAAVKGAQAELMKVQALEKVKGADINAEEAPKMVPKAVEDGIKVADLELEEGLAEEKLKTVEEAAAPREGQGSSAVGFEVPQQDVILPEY

DCLK1 = target: T2, DCLK1 (Homo sapiens, UniProt O15075); conditions: supplement CSV
T2 sequence (O15075 1-740): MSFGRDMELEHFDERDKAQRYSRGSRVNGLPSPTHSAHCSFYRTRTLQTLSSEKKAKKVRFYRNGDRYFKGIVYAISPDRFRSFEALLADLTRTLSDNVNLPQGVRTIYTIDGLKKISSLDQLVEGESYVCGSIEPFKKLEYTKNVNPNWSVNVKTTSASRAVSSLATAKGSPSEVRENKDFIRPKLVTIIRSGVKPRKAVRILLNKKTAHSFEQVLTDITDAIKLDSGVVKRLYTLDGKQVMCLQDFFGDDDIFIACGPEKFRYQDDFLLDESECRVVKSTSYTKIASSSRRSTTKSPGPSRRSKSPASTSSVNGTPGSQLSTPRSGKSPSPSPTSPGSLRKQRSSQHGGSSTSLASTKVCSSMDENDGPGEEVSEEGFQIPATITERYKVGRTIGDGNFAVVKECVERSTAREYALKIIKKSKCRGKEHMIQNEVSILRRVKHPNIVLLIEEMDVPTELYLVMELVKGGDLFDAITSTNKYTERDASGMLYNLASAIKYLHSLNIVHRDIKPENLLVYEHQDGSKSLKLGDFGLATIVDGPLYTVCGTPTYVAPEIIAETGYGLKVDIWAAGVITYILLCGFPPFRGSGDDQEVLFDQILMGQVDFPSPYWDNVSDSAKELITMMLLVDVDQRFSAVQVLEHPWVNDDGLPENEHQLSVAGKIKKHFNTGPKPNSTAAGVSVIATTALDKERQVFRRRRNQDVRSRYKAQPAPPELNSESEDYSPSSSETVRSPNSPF

DAPK1 = DAPK1 (Homo sapiens, UniProt P53355); conditions: supplement CSV
CK2a = CK2a (Homo sapiens, UniProt P68400); conditions: supplement CSV
Sequence of CK2a (P68400 whole entry): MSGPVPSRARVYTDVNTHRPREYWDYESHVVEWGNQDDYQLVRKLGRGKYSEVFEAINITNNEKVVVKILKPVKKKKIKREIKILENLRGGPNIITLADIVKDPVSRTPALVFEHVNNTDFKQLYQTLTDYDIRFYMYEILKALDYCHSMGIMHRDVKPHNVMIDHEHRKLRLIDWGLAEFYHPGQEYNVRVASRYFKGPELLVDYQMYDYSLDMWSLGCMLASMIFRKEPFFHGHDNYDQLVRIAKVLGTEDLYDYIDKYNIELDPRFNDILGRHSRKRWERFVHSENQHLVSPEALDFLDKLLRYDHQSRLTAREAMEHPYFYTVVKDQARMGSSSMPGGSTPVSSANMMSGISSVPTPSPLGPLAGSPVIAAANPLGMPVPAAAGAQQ

ABL = ABL (Homo sapiens, UniProt P00519); conditions: supplement CSV
Sequence of ABL (P00519 whole entry, species assumed): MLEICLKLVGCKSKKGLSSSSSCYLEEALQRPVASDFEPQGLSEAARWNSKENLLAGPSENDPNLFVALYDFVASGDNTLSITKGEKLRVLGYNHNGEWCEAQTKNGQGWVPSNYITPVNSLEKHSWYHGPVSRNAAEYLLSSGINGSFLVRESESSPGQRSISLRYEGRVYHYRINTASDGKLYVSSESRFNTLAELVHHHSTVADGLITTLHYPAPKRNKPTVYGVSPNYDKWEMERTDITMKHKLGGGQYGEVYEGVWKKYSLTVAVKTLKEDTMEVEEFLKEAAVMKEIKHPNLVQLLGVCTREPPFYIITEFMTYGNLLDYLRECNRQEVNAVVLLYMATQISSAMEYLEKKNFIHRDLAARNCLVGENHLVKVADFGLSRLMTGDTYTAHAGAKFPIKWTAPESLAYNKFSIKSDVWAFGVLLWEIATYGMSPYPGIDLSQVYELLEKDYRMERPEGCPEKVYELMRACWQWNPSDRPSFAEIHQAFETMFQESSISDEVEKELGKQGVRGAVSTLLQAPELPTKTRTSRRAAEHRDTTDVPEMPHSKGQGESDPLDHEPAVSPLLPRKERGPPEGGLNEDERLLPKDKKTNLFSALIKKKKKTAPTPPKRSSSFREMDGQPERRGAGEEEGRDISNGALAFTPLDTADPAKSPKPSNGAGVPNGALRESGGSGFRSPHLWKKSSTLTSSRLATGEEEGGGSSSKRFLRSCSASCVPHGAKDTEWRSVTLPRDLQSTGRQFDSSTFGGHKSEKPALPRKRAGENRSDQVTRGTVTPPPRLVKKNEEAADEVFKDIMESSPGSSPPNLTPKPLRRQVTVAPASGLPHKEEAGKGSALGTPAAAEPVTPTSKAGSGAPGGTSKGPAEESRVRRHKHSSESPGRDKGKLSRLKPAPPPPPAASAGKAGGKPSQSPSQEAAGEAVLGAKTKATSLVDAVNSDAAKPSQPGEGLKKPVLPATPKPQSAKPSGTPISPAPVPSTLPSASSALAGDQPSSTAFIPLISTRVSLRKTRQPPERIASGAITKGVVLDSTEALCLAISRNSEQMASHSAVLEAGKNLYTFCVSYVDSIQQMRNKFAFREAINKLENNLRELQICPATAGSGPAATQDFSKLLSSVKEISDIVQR

PIM1 = PIM1 (Homo sapiens, UniProt P11309); conditions: supplement CSV
Sequence of PIM1 (P11309 whole entry): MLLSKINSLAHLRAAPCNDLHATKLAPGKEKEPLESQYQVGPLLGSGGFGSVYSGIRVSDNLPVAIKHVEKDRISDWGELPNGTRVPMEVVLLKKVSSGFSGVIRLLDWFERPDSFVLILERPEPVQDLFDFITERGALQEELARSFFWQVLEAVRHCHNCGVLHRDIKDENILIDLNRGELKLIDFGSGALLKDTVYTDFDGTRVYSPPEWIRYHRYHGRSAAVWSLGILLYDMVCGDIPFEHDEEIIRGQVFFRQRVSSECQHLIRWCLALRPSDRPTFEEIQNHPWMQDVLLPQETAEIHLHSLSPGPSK

PAK4 = PAK4 (Homo sapiens, UniProt O96013); conditions: supplement CSV
Sequence of PAK4 (O96013 whole entry): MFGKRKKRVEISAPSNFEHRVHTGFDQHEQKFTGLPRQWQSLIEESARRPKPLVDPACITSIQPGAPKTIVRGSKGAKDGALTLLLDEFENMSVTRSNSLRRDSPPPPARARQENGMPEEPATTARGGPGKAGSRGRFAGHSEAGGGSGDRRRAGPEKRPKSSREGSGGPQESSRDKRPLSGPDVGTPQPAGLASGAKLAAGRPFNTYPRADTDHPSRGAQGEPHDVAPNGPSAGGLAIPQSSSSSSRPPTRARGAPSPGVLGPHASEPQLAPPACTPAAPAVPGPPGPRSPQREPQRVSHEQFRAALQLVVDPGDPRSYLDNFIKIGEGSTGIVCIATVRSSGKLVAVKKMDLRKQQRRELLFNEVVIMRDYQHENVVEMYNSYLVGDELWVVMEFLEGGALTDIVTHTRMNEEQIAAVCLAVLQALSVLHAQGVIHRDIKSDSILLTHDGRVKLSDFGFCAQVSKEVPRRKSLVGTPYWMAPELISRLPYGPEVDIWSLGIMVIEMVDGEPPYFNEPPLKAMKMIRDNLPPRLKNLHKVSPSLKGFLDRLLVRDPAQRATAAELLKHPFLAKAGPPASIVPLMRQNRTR

[1] = tested on: kinase panel (468 Assays Tested); test: Pan-kinome selectivity, competitive binding assay (KINOMEscan); conditions: for S-Score(35): 1 μM
PKNB(M.tuberculosis) = target: T3, PKNB(M.tuberculosis) (Mycobacterium tuberculosis, UniProt P9WI81); test: KINOMEscan; assay type: binding
T3 construct: purchased DiscoverX (Eurofins) KINOMEscan scanMAX; first lines in-house DSF / ADP-Glo
T3 sequence (P9WI81 whole entry): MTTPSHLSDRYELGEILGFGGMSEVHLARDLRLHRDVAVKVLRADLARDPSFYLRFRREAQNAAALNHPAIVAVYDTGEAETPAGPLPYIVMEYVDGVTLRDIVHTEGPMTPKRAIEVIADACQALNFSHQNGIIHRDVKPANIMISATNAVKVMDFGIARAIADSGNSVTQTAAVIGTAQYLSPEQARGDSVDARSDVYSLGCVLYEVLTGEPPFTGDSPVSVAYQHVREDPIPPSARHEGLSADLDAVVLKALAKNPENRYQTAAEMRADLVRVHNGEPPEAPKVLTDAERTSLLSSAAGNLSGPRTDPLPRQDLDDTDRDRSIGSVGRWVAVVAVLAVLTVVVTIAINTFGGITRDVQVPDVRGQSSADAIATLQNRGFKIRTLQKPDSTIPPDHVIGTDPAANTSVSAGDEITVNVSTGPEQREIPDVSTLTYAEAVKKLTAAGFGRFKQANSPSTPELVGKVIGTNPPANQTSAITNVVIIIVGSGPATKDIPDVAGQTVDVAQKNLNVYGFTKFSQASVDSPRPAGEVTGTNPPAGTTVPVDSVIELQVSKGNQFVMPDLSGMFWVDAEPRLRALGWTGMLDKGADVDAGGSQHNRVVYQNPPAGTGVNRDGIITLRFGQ

Sequence of DAPK3 (O43293 whole entry): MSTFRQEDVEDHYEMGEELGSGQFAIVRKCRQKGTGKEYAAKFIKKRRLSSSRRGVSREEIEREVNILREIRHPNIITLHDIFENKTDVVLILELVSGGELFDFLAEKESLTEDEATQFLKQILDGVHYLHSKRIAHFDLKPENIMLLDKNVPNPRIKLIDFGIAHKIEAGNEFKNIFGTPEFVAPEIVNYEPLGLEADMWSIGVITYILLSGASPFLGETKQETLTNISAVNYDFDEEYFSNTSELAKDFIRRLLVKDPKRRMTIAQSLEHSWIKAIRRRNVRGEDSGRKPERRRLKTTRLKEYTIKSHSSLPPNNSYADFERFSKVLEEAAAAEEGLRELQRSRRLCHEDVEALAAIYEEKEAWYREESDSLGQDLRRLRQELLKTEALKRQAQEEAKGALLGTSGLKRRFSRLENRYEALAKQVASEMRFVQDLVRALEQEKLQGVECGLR
Sequence of CAMK1G (Q96NX5 whole entry): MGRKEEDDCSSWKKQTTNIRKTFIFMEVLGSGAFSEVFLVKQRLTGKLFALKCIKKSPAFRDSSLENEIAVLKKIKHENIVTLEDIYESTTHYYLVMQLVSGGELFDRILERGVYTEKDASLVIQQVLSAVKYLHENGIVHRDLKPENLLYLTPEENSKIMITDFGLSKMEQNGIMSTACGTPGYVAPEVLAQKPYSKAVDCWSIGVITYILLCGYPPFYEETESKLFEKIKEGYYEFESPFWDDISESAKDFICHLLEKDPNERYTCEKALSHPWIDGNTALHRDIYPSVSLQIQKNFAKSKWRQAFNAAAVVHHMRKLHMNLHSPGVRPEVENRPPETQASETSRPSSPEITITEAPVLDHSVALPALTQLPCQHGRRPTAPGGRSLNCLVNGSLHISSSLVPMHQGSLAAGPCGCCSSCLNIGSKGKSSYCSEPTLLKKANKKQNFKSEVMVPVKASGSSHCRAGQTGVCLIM
Sequence of CAMK2A (Q9UQM7 whole entry): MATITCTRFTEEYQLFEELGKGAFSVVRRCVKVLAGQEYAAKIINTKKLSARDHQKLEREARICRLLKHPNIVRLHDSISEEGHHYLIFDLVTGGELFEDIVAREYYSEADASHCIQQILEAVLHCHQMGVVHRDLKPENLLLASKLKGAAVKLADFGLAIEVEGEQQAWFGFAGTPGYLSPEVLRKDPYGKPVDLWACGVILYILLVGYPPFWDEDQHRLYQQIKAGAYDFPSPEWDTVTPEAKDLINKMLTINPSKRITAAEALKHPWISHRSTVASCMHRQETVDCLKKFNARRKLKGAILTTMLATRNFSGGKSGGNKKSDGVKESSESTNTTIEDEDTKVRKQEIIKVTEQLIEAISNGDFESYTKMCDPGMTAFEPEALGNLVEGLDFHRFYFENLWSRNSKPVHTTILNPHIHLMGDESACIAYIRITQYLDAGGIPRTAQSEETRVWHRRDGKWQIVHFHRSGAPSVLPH

Row | SMILES | CAMK1G Tm (CAMK1G) | CAMK2A Tm (CAMK2A) | SYK Tm (SYK) | DAPK3 Tm (DAPK3) | GSK3B Tm (GSK3β) | CAMK4 Tm (CaMK4) | DCAMKL1 Tm (DCLK1) | DAPK1 Tm (DAPK1) | CK2alpha Tm (CK2a) | ABL1 Tm (ABL) | PIM1 Tm (PIM1) | PAK4 Tm (PAK4) | S-Score(35) [1] | wild-type kinases inhibited by >90% ([1]; competitive binding assay at 1 μM) | remaining binding at 1 µM (PKNB(M.tuberculosis))
1 | NC(=O)c1cnc(N2CCCC(N)C2)nc1Nc1cccc(C(F)(F)F)c1 (racemic) [Compound 6, (rac)-2-(3-Aminopiperidin-1-yl)-4-((3-(trifluoromethyl)phenyl)amino)pyrimidine-5-carboxamide Hydrochloride] | 8.82 0C | 1.21 0C |  |  |  |  |  |  |  |  |  |  |  |  | 
2 | NCCNc1ncc(C(N)=O)c(Nc2cccc(C(F)(F)F)c2)n1 [Compound 1, 2-((2-Aminoethyl)amino)-4-((3-(trifluoromethyl)phenyl)amino)pyrimidine-5-carboxamide hydrochloride, reference compound] | 4.11 0C | 0.21 0C | 7.51 0C | 4.05 0C | 3.4 0C | 1.34 0C | 0.11 0C | 2.33 0C | 0.87 0C | 1.33 0C | 1 0C | 4.62 0C |  |  | 
3 | CNC(=O)c1cnc(NCCN)nc1Nc1cccc(C(F)(F)F)c1 [Compound 2, 2-((2-Aminoethyl)amino)-N-methyl-4-((3-(trifluoromethyl)phenyl)amino)pyrimidine-5-carboxamide, reference compound] | 0.15 0C | -0.22 0C |  |  |  |  |  |  |  |  |  |  |  |  | 
4 | CN(CCN)c1ncc(C(N)=O)c(Nc2cccc(C(F)(F)F)c2)n1 [Compound 3, 2-((2-Aminoethyl)(methyl)amino)-4-((3-(trifluoromethyl)phenyl)amino)pyrimidine-5-carboxamide Hydrochloride] | 4.91 0C | 0.49 0C |  |  |  |  |  | 3.2 0C | 1.26 0C | 1.75 0C | 4.42 0C | 2.1 0C |  |  | 
5 | CNCCN(C)c1ncc(C(N)=O)c(Nc2cccc(C(F)(F)F)c2)n1 [Compound 4, 2-(Methyl(2-(methylamino)ethyl)amino)-4-((3-(trifluoromethyl)phenyl)amino)pyrimidine-5-carboxamide Hydrochloride] | 1.13 0C | 0.1 0C |  |  |  |  |  |  |  |  |  |  |  |  | 
6 | CN(C)CCN(C)c1ncc(C(N)=O)c(Nc2cccc(C(F)(F)F)c2)n1 [Compound 5, 2-((2-(Dimethylamino)ethyl)(methyl)amino)-4-((3-(trifluoromethyl)phenyl)amino)pyrimidine-5-carboxamide Hydrochloride] | 2.78 0C | 0.29 0C |  |  |  |  |  |  |  |  |  |  |  |  | 
7 | NC(=O)c1cnc(N2CCC[C@H](N)C2)nc1Nc1cccc(C(F)(F)F)c1 [Compound 8, (S)-2-(3-Aminopiperidin-1-yl)-4-((3-(trifluoromethyl)phenyl)amino)pyrimidine-5-carboxamide Hydrochloride] | 9.55 0C | 1.08 0C |  |  |  |  |  |  |  |  |  | 4.73 0C | 0.12 | 11 | 84%
8 | NC(=O)c1cnc(N2CCC[C@H](N)C2)nc1Nc1cc(C(F)(F)F)cc(C(F)(F)F)c1 [Compound 9] | 16.18 0C | 1.09 0C |  | 8.72 0C | -0.47 0C | 7.06 0C | 1.22 0C |  |  |  |  | 3.17 0C |  |  | 
9 | CC(C)(C)c1cccc(Nc2nc(N3CCC[C@H](N)C3)ncc2C(N)=O)c1 [Compound 10, (S)-2-(3-Aminopiperidin-1-yl)-4-((3-(tert-butyl)phenyl)amino)pyrimidine-5-carboxamide Hydrochloride] | 9.24 0C | 0.77 0C |  | 5.43 0C | 0.67 0C | 3.78 0C | 0.3 0C |  |  |  |  | 1.24 0C |  |  | 
10 | CS(=O)(=O)c1cccc(Nc2nc(N3CCC[C@H](N)C3)ncc2C(N)=O)c1 [Compound 11, (S)-2-(3-Aminopiperidin-1-yl)-4-((3-(methylsulfonyl)phenyl)amino)pyrimidine-5-carboxamide] | 7.26 0C | 0.53 0C |  | 6.85 0C | 1.4 0C | 4.49 0C | -0.09 0C |  |  |  |  | 3.75 0C |  |  | 
11 | NC(=O)c1cnc(N2CCC[C@H](N)C2)nc1Nc1cccc(-c2ccccc2)c1 [Compound 12, (S)-4-([1,1′-Biphenyl]-3-ylamino)-2-(3-aminopiperidin-1-yl)pyrimidine-5-carboxamide Hydrochloride] | 12.19 0C | 2.35 0C |  | 8.03 0C | 0.32 0C | 4.98 0C | 1.64 0C |  |  |  |  | 5.67 0C |  |  | 
12 | CC(C)(C#N)c1cccc(Nc2nc(N3CCC[C@H](N)C3)ncc2C(N)=O)c1 [Compound 13, (S)-2-(3-Aminopiperidin-1-yl)-4-((3-(2-cyanopropan-2-yl)phenyl)amino)pyrimidine-5-carboxamide] | 6.35 0C | 0.6 0C |  | 6.82 0C | 0.46 0C | 4.38 0C | 0.32 0C |  |  |  |  | 1.98 0C |  |  | 
13 | CC(C)(C)c1cc(Nc2nc(N3CCC[C@H](N)C3)ncc2C(N)=O)cc(C(C)(C)C)c1 [Compound 14, (S)-2-(3-Aminopiperidin-1-yl)-4-((3,5-di-tert-butylphenyl)amino)pyrimidine-5-carboxamide] | 10.22 0C | 0.69 0C |  | 4.82 0C | -0.63 0C | 6.39 0C | 1.34 0C |  |  | -0.28 0C |  | -0.72 0C | 0.01 |  | 97%
14 | CC(C)c1cc(Nc2nc(N3CCC[C@H](N)C3)ncc2C(N)=O)cc(C(C)C)c1 [Compound 15, (S)-2-(3-Aminopiperidin-1-yl)-4-((3,5-diisopropylphenyl)amino)pyrimidine-5-carboxamide] | 10.33 0C | 2.19 0C |  | 8.08 0C | -0.2 0C | 6.46 0C | 1.96 0C |  |  |  |  | 4.76 0C |  |  | 
